Measurements reported in patent US20240325548A1, “DYNAMIC BIOACTIVE SCAFFOLDS AND THERAPEUTIC USES THEREOF AFTER CNS INJURY” (Northwestern University, priority 2021, published 2024).

Test system: murine model of severe spinal cord injury (SCI)
Experiment: Hindlimb locomotor evaluation after SCI (BMS, footprint analysis)
Type: in vivo, mouse
Conditions: three weeks post-injury
Description: All experiments were conducted at the Simpson Querrey Institute at Northwestern University. 182 CD1 mice (Charles River) were subjects of this study (N=38 Sham, N=38 IKVAV PA2 alone, N=38 IKVAV PA2+FGF2 PA1, N=38 IKVAV PA2+FGF2 PA2, N=12 IKVAV PA1, N=12 Backbone PA, N=6 IKVAV PA4). The age of animals used in the study was in the range of 10-16 weeks. 8 independent in vivo experiments were carried out (injury+PA injection) and each of the 8 experiments had animals of the exact same age which were injected with at least the 4 main treatment groups: Sham, IKVAV PA2 alone, IKVAV PA2+FGF2 PA1, and IKVAV PA2+FGF2 PA2. Animals were anesthetized using 2.5% isoflurane gas with oxygen. […]
Mice that passed this inclusion criterion were randomized into experimental groups for PA injection and were thereafter evaluated blind to their experimental condition.
PAs (dissolved in sterile NaCl 0.9% solution at 1 wt %) were injected 24 h after SCI using a glass capillary micropipette (Sutter Instruments, Novato, CA) (outer diameter, 100 m) coated with Sigmacote (Sigma-Aldrich) to reduce surface tension as described elsewhere (19). […] The micropipette was lowered to a depth of 750 m measured from the dorsal surface of the cord, and 4-6 μL of the diluted amphiphile solution was injected at 1 L/min. […]
The motor function was evaluated with the locomotor open-field rating scale on the Basso Mouse Scale (BMS). […]

C16-A2G2E4GIKVAV [IKVAV PA2]
BMS open field locomotor score: 4.3±0.5
